Experimental data as given in patent US8048899B2, “Compounds which selectively modulate the CB2 receptor” (Boehringer Ingelheim International GmbH, priority 2008, dated 2011).
Like-named read-outs stand apart in the source and are kept apart here.

Columns and labels:
human CB2R = biological target: T1, human CB2R (Homo sapiens, UniProt P34972); test: CB2R mediated modulation of cAMP synthesis; type: cell-based
T1 construct: host or cells: CHO cells
Procedure: B. CB2R Mediated Modulation of cAMP Synthesis:
Compounds of the invention are evaluated for their CB2 agonist or inverse agonistic activity in accordance with the following experimental method.
(§1) CHO cells expressing human CB2R (Euroscreen) are plated at a density of 5000 cells per well in 384 well plates and incubated overnight at 37° C. After removing the media, the cells are treated with test compounds diluted in stimulation buffer containing 1 mM IBMX, 0.25% BSA and 10 uM Forskolin. The assay is incubated for 30 minutes at 37° C. Cells are lysed and the cAMP concentration is measured using DiscoverX-XS cAMP kit, following the manufacturer's protocol. In this setting, agonists will decrease forskolin induced production of cAMP while inverse agonists will further increase forskolin induced production of cAMP. EC50 of agonists are calculated as follows. The maximal amount of cAMP produced by forskolin compared to the level of cAMP inhibited by 1 uM CP55940 is defined as 100%. […] Data is analyzed using a four-parameter logistic model. (Model 205 of XLfit 4.0).

human CB1R = biological target: T2, human CB1R (Homo sapiens, UniProt P21554); test: CB1R mediated modulation of cAMP synthesis; type: cell-based
T2 construct: host or cells: CHO cells
T2 sequence (P21554 whole entry): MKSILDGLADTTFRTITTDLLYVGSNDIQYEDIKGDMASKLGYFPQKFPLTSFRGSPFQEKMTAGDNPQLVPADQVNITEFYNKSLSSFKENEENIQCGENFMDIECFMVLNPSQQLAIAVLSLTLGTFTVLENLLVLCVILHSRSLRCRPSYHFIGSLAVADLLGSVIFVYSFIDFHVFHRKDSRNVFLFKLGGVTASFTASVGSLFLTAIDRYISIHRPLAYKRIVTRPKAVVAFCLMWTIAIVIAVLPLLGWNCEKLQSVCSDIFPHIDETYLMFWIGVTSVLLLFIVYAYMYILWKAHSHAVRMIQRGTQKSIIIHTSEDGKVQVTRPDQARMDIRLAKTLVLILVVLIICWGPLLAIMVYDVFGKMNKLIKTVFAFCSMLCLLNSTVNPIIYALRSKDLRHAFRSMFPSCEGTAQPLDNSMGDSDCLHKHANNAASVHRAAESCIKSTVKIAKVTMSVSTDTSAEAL
Procedure: C. CB1R Mediated Modulation of cAMP Synthesis:
Compounds of the invention are evaluated for their CB1 agonist or inverse agonistic activity in accordance with the following experimental method.
as §1, with “CB1R” for “CB2R”

[1] = CHO cells expressing human CB2R, inhibition of forskolin-stimulated cAMP synthesis, read-out: CB2 EC50
[2] = CHO cells expressing human CB1R, inhibition of forskolin-stimulated cAMP synthesis, read-out: CB1 EC50

T1 sequence (P34972 whole entry): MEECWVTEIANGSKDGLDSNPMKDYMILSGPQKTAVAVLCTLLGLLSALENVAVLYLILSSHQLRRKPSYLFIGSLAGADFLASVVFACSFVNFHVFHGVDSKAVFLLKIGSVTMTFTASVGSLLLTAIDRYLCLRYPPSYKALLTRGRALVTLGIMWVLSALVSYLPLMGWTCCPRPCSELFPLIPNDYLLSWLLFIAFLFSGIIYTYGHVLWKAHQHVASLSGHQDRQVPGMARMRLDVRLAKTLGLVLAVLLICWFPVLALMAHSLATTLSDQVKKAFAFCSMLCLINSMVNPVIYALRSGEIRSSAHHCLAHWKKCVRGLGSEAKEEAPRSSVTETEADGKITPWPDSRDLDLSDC

Row | SMILES | EC50 (human CB2R) [nM] | EC50 (human CB1R) [µM] | EC50 (human CB2R; [1]) [nM] | EC50 (human CB1R; [2]) [µM]
1 | CC(C)(CO)c1cc(NC(=O)C(C)(C)S(=O)(=O)CC[C@H]2CCOC2)on1 | 6.2 | > 20 |  | 
2 | CC(C)(CO)c1cc(NC(=O)C(C)(C)S(=O)(=O)CCCC(F)(F)F)on1 |  |  | 15 | > 20
3 | COc1ccc(-c2nnc(NC(=O)C(C)(C)S(=O)(=O)CC3CCC3)[nH]2)c(F)c1 | 7.6 | > 20 |  | 
4 | CC(C)(C(=O)Nc1nnc(-c2ccc(O)cc2)[nH]1)S(=O)(=O)C1CCOCC1 | 5 | > 20 |  | 
5 | CC(C)(CO)c1cc(NC(=O)C(C)(C)S(=O)(=O)c2ccc(F)cc2)on1 | 30 | > 20 |  | 
6 | CC(C)(C(=O)Nc1cc(C2(CO)CCCC2)no1)S(=O)(=O)C1CCCC1 | 45 | > 20 |  | 
7 | CC(C)(CO)c1nnc(NC(=O)C(C)(C)S(=O)(=O)C[C@H]2CCCCO2)s1 | 28 | > 50 |  | 
8 | CC(C)(C(=O)Nc1cc(C2(CO)CCCC2)no1)S(=O)(=O)CC1CCC1 | 25 | > 20 |  | 
9 | COc1ccc(-c2nnc(NC(=O)C(C)(C)S(=O)(=O)C3CCOCC3)[nH]2)c(F)c1 | 13 | > 50 |  | 
10 | COc1ccc(-c2nnc(NC(=O)C(C)(C)S(=O)(=O)CC3CC3)[nH]2)cc1 | 32 | > 50 |  | 
11 | CCOc1ccc(-c2n[nH]c(NC(=O)C(C)(C)S(=O)(=O)CC3CC3)n2)cc1 |  |  | 488 | > 50
12 | COCC(C)(C)c1cc(NC(=O)C(C)(C)S(=O)(=O)CC2CCOCC2)no1 |  |  | 137 | > 20
13 | CC(C)(CO)c1cc(NC(=O)C2(S(=O)(=O)C3CCOCC3)CCC2)on1 |  |  | 212 | > 50
14 | CC(C)(C(=O)Nc1cc(C2(CO)CC2)no1)S(=O)(=O)CCCC(F)(F)F |  |  | 247 | > 50
15 | COc1ccc(-c2nnc(NC(=O)C(C)(C)S(=O)(=O)c3ccc(S(C)(=O)=O)cc3F)[nH]2)cc1 | 2.1 | > 20 |  | 
16 | CC(C)(C(=O)Nc1cc(C2(CO)CC2)no1)S(=O)(=O)C1CCOCC1 |  |  | 117 | > 50
17 | CC[C@H](C)S(=O)(=O)C(C)(C)C(=O)Nc1cc(C(C)(C)CO)no1 |  |  | 118 | > 50

Row | SMILES | EC50 (human CB2R) [nM] | EC50 (human CB1R) [µM] | EC50 (human CB2R; [1]) [nM] | EC50 (human CB1R; [2]) [µM]
18 | COc1ccc(-c2nnc(NC(=O)C(C)(C)S(=O)(=O)CC3CCOCC3)[nH]2)cc1 | 9.5 | > 50 |  | 
19 | CC(C)(CO)c1cc(NC(=O)C(C)(C)S(=O)(=O)C2CCCC2)on1 | 75 | > 20 |  | 
20 | CC(C)(C(=O)Nc1nnc(-c2ccc(OC(F)(F)F)cc2)[nH]1)S(=O)(=O)C1CCOCC1 |  |  | 194 | > 20
21 | CC(C)(C(=O)Nc1nc(-c2cccc(O)c2)n[nH]1)S(=O)(=O)CC1CC1 |  |  | 283 | > 50
22 | CC(C)(CO)c1cc(NC(=O)C(C)(C)S(=O)(=O)c2cccc(F)c2F)on1 |  |  | 172 | > 20
23 | CC(C)(C(=O)Nc1cc(C2(CO)CCCCC2)no1)S(=O)(=O)CC1CCC1 | 67 | > 20 |  | 
24 | CC(C)(C(=O)Nc1nc(-c2cccc(O)c2)n[nH]1)S(=O)(=O)C1CCOCC1 |  |  | 130 | > 50
25 | CCOCC(C)(C)c1cc(NC(=O)C(C)(C)S(=O)(=O)C2CCOCC2)on1 | 3.6 | > 20 |  | 
26 | CC(C)(C(=O)Nc1nnc(-c2ccc(OC(F)(F)F)cc2)[nH]1)S(=O)(=O)CC1CCOCC1 |  |  | 337 | > 20
27 | CC(C)(CO)c1cc(NC(=O)C(C)(C)S(=O)(=O)CC2CCC2)no1 | 96 | > 50 |  | 
28 | CC(C)(CO)c1cc(NC(=O)C(C)(C)S(=O)(=O)CC2CCOCC2)on1 |  |  | 39 | > 50
29 | CC(C)(C(=O)Nc1nnc(-c2ccc(O)cc2F)[nH]1)S(=O)(=O)C1CCOCC1 | 7.7 | > 50 |  | 
30 | CC[C@H](C)S(=O)(=O)C(C)(C)C(=O)Nc1cc(C2(CO)CCCC2)no1 | 82 | > 20 |  | 
31 | COc1ccc(-c2nnc(NC(=O)C(C)(C)S(=O)(=O)CC(C)C)[nH]2)cc1 | 69 | > 20 |  | 
32 | CC(C)(CO)c1nnc(NC(=O)C(C)(C)S(=O)(=O)C2CCOCC2)s1 | 48 | > 50 |  | 
33 | COc1ccccc1-c1n[nH]c(NC(=O)C(C)(C)S(=O)(=O)CC2CC2)n1 | 15 | > 20 |  | 
